Reference: patent publication US20090239884A1, “Methods of Treating Inflammation” (priority 2006, published 2009)
Entries after “also recorded” stand apart in the source; their conditions may differ. Like-named read-outs stand apart in the source and are kept apart here.

Assays:
[1] = tested on: Con A-stimulated mouse splenocytes; test: transwell chemotaxis assay in response to CXCL12, Con A-stimulated splenocytes; assay type: cell-based; conditions: for effect on CXCL12-induced migration: forskolin 25 μM, motapizone 10 μM, piclamilast 1 μM
Experimental: (§1) Isolation of murine splenocytes. Splenocytes were isolated from 6-8 week old C57BL/6 mice obtained from Jackson Laboratories (Bar Harbor, Me.). Spleens were removed and a single-cell suspension prepared using 40 μm cell strainers (Fisher Scientific). Cells were washed with RPMI 1640 medium supplemented with 5% fetal bovine serum, 2 mM L-glutamine, 100 U/ml penicillin and […] (all from GIBCO). Red blood cells were lysed using standard lysis buffer (0.15M NH4Cl, 10mM KHCO3, 0.1 mM EDTA PH 7.4). Cells were then washed and used in chemotaxis assays either as unstimulated cells or after stimulation with Con A ([…]) as indicated.
(§2) Preparation of Test Reagents. […] This concentration of DMSO had no effect on migration of splenocytes in the presence or absence of CXCL12. CXCL12 was prepared as a 100 μg/ml stock solution in PBS+0.1% BSA, Con A was prepared as a stock of 2.5 mg/ml in PBS, and dibutyryl cAMP and Rp-cAMPS were prepared as 50 mM stock solutions in water, and these reagents were diluted directly into the chemotaxis assays.
(§3) Chemotaxis Assay. Chemotaxis assays were done in 24-well transwell plates with a pore size of 5 μm (Costar, Corning). Splenocytes were placed in medium at a concentration of 3×10^6 cells/ml. Where test agents were used, splenocytes were pretreated with the agent or vehicle for 45 to 60 min, following which 100 μl of the splenocyte suspension was placed into the upper chamber of transwell plates, and the lower chamber was filled with 600 μl of medium. When added to induce migration, CXCL12 (250 ng/ml) was added to the lower chamber only. Other test reagents were added as indicated to both the upper and lower chambers. After 4 hours of incubation at 37° C. in 5% CO2, transwell inserts were gently removed and the number of cells that migrated into the lower chamber were counted by withdrawing 500 μl of lower chamber medium, mixing it with 10 ml of buffer and counting the cells on a Coulter Counter (Beckman Coulter Z series). Where results are expressed as % of CXCL12-stimulated migration, this was calculated as follows: (cells migrated in presence of CXCL12 and test reagent—cells migrated in medium alone)/(cells migrated in presence of CXCL12-cells migrated in medium alone)×100. Experimental points for all chemotaxis assays were performed in triplicate.
(§4) Splenocytes isolated from mice were assayed for migration in response to CXCL12 (250 ng/ml), either directly (unstimulated) or following 48 hr of incubation with 3 μg/ml Con A (stimulated), as described in Methods. To test for effects of dibutyryl cAMP, cells were pretreated with dibutyryl cAMP (500 μM) for 45-60 min prior to beginning the chemotaxis assay, and the assays were conducted with dibutyryl cAMP (db-cAMP) present (500 μM) in both the upper and lower chambers of the transwell plates. Data plotted are derived from a single experiment performed in triplicate. *p<0.001; **p<0.02.

[2] = tested on: unstimulated mouse splenocytes; test: transwell chemotaxis assay in response to CXCL12, unstimulated splenocytes; assay type: cell-based
Experimental: as §1, §2, §3, §4

PDE3 = conditions: read-out: Potency (IC50) PDE3; cited from earlier work
[3] = tested on: Con A-activated splenocytes on TNF-α activated bEnd.3 endothelial cells; test: T cell-endothelial cell adhesion assay (Example 13); assay type: cell-based, mouse; conditions: for ability to reduce adhesion of activated T cells to endothelial cells: IBMX 300 μM, piclamilast 1 μM, motapizone 1 μM; for reversal of the inhibitory effect of DP on T cell adhesion: DP 100 μM with adenosine deaminase 1 U/ml or CXCL12 250 ng/ml
Experimental: (§5) Cell treatment. Confluent bEnd.3 monolayers were incubated with 200 ng/ml TNF-α (Peprotech, Rocky Hill, N.J.) at 37° c. for 2 hours. […] Christoff Zitt and Armin Hatzelmann (Altana Pharma, Konstanz, Germany). Con A-activated splenocytes or CD4^+CD25^− T cells activated with plate-bound anti-CD3 mAb were treated with the same reagents for 20, 45, or 90 minutes.
Adhesion assays. Adhesion assays were performed in 24-well plates with a confluent layer of bEnd.3 cells. Splenocytes or CD4^+CD25^− T cells were labeled with 5 μM Calcein AM (Molecular Probes, Eugene, Oreg.) and treated as described above. 7×10^5 pretreated splenocytes or CD4^+CD25^− T cells per well were incubated on bEnd.3 cells in RPMI media. After 30 minutes at 37° C., non-adherent cells were removed by washing with D-PBS. For analysis, 7×10^5 Calcein AM labeled splenocytes or CD4^+CD25^− T cells were used as positive controls. Fluorescence was read in a Victor 3v microplate reader (Perkin Elmer, Waltham, Mass.) with a fluorescein filter set. The percentage of adherent T cells, i.e. labeled cells resistant to detachment, was calculated as total fluorescence of well divided by fluorescence of 7×10^5 Calcein AM labeled cells multiplied by 100.
In FIGS. 20A-20B, splenocytes from C57BL/6 mice were activated with Con A (3 μg/ml) for 48 hours followed by a 45 minute incubation with (A) IBMX (300 μM), piclamilast (Picl, 1 μM) or DP (100 μM), (B) dibutryl cAMP (Db-cAMP, 500 μM) or DP in the presence or absence of adenosine deaminase (AD, 1 U/ml) or vehicle (0.1% DMSO). bEnd.3 endothelial cells were activated for 2 hours with TNF-α (200 ng/ml) and incubated with the same reagents for the final 45 minutes before splenocytes were added to the bEnd.3 cells for the adhesion assay. The data are presented as the mean±SEM percentage of splenocytes which were resistant to detachment. Results are representative of at least three independent experiments run in triplicate (*p<0.05, **p<0.001; one way ANOVA followed by Bonferroni t-test).

PDE4 [4] = conditions: cited from earlier work
[5] = tested on: Con A activated splenocytes on bEND.3 brain derived endothelial cell monolayers; test: adhesion of Con A activated splenocytes to bEND.3 monolayer (Example 4); assay type: cell-based, mouse; conditions: piclamilast 1 μM; static assay
Experimental: The hypothesis was first tested using a series of experiments determining T cell adhesion to vascular endothelial cells. Confluent bEND.3 brain derived endothelial cell monolayers were pretreated with 100 ng/ml TNF-α. […] Splenocytes were allowed to adhere for 30 min at 37° C. without shaking after which nonadherent cells were removed by washing the wells 4× with prewarmed D-PBS. For analysis, 7×10^5 calcein AM labeled cells were added to an empty well as a representation of maximal possible fluorescence. The fluorescence of each well was read by a Victor 3v microplate reader with a fluorescein filter set. Background fluorescence (medium only) was subtracted from each well and percentage of adherent cells that is resistant to detachment under the conditions of washing the wells was calculated as fluorescence of well in percent of maximal fluorescence (without washing).

PDE4 [6] = test: PDE4 inhibition; assay type: biochemical
T cells = conditions: cited from earlier work
[7] = tested on: peripheral blood mononuclear cells; conditions: cited from earlier work
bEnd.3 endothelial cells = test: qRT-PCR gene expression in TNF-α activated bEnd.3 endothelial cells; assay type: cell-based, mouse; conditions: 45 minutes, DP 100 μM, dibutryl cAMP 500 μM
Experimental: Quantitative real-time RT-PCR analysis. 10 ng cDNA, or 2 μl cDNA for LCM studies, was amplified by qRT-PCR in a 25 μl reaction using SYBR Green PCR Master Mix (Applied Biosystems, Foster City, Calif.). Primers were designed using Primer Express software v3.0 and primer efficiency verified by slope analysis to be 100%±2.5%. qRT-PCR was performed using an ABI 7500 fast system and data analyzed using the Δ^ct method (SDS software v3.0). Amplicon sizes were approximately 100 bp.
as §5
In FIG. 23A, bEnd.3 endothelial cells were activated for 2 hours with TNF-α (200 ng/ml) and (A) DP (100 μM) or vehicle (0.1% DMSO) for the final 45 minutes. PDE gene expression was then analyzed by qRT-PCR and the data presented as the mean+SEM of 3 independent experiments assayed in triplicate (*p<0.05, **p<0.001; unpaired t-test).
The data are shown as a mean±SEM percentage of vehicle control and represent 3 independent experiments assayed in triplicate (*p<0.05, * *p<0.001; unpaired t-test).

PDE1 = conditions: read-out: Potency (IC50) PDE1; cited from earlier work
[8] = Mus musculus, Splenocyte, 4 h, read-out: inhibition of CXCL12-induced migration

C=C[C@@]1(C)CC(=O)[C@]2(O)[C@@]3(C)[C@@H](O)CCC(C)(C)[C@@H]3[C@H](O)[C@H](OC(C)=O)[C@@]2(C)O1 [forskolin]
effect on CXCL12-induced migration ([1]; Con A-stimulated splenocytes): no effect at all | inhibition at 25 µM [2, 8]: 31%

Nc1ncnc2c1ncn2[C@@H]1O[C@@H]2COP(O)(=S)O[C@H]2[C@H]1O (single isomer, unassigned) [Rp-cAMPS, 3′,5′-cyclic monophosphorothioate, Rp-isomer]
reversal of dipyridamole inhibition of CXCL12-stimulated chemotaxis ([1]; Rp-cAMPS 1 mM with dipyridamole 100 μM): reversed; also recorded: reversal

CN(C(=O)CCCOc1ccc2[nH]c(=O)ccc2c1)C1CCCCC1 [Cilostamide]
IC50 (PDE3): 5 nM

CC1CC(=O)NN=C1c1cc(-n2ccnc2)cs1 (centres unmarked) [motapizone]
ability to reduce adhesion of activated T cells to endothelial cells ([3]; 45 minute incubation): no inhibitory effect | effect on CXCL12-induced migration ([1]; Con A-stimulated splenocytes): no statistically significant effect; also recorded: not inhibited at all

COc1ccc(C(=O)Nc2c(Cl)cncc2Cl)cc1OC1CCCC1 [piclamilast]
ability to reduce adhesion of activated T cells to endothelial cells ([3]; 45 minute incubation): no short term suppressive effect | effect on CXCL12-induced migration ([1]; Con A-stimulated splenocytes): no statistically significant effect; also recorded: not inhibited at all | IC50 (PDE4 [4]; read-out: IC50, PDE4): 1 nM | effect on adhesion of Con A-stimulated splenocytes to endothelial cells [5]: not inhibited at all | Ki (PDE4 [6]; purified PDE4): ~0.3 nM | concentration margin before any other PDE gene family is inhibited (PDE4 [6]; relative to PDE4 inhibition): more than 5 orders of magnitude

COc1ccc(C2CNC(=O)C2)cc1OC1CCCC1 (centres unmarked) [rolipram]
adhesion of T cells (T cells; 8-48 hour treatment): blocked | adhesion to vascular ligands or endothelial cells (T cells; exposure for a short period of 4 hours): no effect | T cell adhesion (T cells; until after 8 hours of exposure): did not significantly inhibit | lipopolysaccharide-stimulated release of TNF-α [7]: inhibit | concentration above which specificity for PDE4 is lost (PDE4 [4]): […] | IC50 (PDE4 [4]; read-out: Potency (IC50) PDE4): […]

CXCL12: Recombinant mouse CXCL12, chemokine, chemoattractant for leukocytes
reversal of the inhibitory effect of DP on T cell adhesion [3]: did not reverse | increase in number of migrating splenocytes ([1]; Con A-stimulated splenocytes, CXCL12 250 ng/ml in lower chamber, 4 hr): 2.5 fold | increase in number of migrating splenocytes ([2]; unstimulated splenocytes, CXCL12 250 ng/ml in lower chamber, 4 hr): 6.2 fold | effect on adhesion of Con A-stimulated splenocytes to endothelial cells [5]: did not increase

adenosine deaminase
reversal of the inhibitory effect of DP on T cell adhesion [3]: did not reverse | effect by itself on splenocyte migration ([1]; adenosine deaminase 1 U/ml, stimulated splenocytes): no effect

CCCC(=O)Nc1ncnc2c1ncn2[C@@H]1O[C@@H]2COP(=O)(O)O[C@H]2[C@H]1OC(=O)CCC [dibutyryl cAMP]
reduction of adhesion of activated T cells to bEnd.3 endothelial cells ([3]; 45 minute incubation, DP 100 μM, dibutryl cAMP 500 μM, adenosine deaminase 1 U/ml): 81% | inhibition at 500 µM [1, 8]: 29% | reduction of ICAM-1 mRNA expression (bEnd.3 endothelial cells): 42% | increase of claudin-5 gene expression (bEnd.3 endothelial cells; 8-bromo-cAMP 500 μM): 70% | reduction of CXCL12 gene expression (bEnd.3 endothelial cells; 8-bromo-cAMP 500 μM): 48% | reduction of VCAM-1 gene expression (bEnd.3 endothelial cells; 8-bromo-cAMP 500 μM): 33% | inhibition at 500 µM [2, 8]: 54%

CCOC(=O)C1=C[C@]2(CC)CCCN3CCc4c(n1c1ccccc41)[C@@H]32 [Vinpocetine]
IC50 (PDE1): 5000 to 25000 nM
